The assay deals with GtH-II secretion in female gilthead seabream. As to the kind of experiment: In vivo gonadotropin-releasing potency: plasma GtH-II by homologous radioimmunoassay after intramuscular injection of GnRH peptides. On the set-up: species or system Sparus aurata. The settings on record: for GtH-II levels, times higher than in saline-injected fish: 25 μg/kg body weight; for stimulation of GtH-II secretion (in words): reproductively mature seabream females, native peptides injected at 5 and 25 μg/kg body weight; for gonadotropin (GtH-II) secretion of sbGnRH, its analogs and the mGnRH analog compared (in words) / blood GtH-II levels, times higher than in sbGnRH-injected females: third experiment; for gonadotropin (GtH-II) secretion of sbGnRH, its analogs and the mGnRH analog compared (in words): 5 μg/kg body weight, 1.5, 4 and 8 hours post-injection. How it is done: During the spawning season, 104 female seabream at 2 years of age, weighing 458±104 g, with preovulatory oocytes of 500-600 μm in diameter were selected for experimentation. Oocyte developmental stage was determined by microscopic examination of a freshly removed ovarian biopsy, as previously described (Zohar et al., 1979, J. Fish Biol. 15:665-670). The bioactivity of the native forms of GnRH and of the GnRH analogs was studied in three consecutive experiments, carried out on day 1, day 3, and day 8. The first experiment included four groups of eight females. Three groups were injected with 5 μg/kg body weight of either sbGnRH, sGnRH or cGnRH-II. The fourth group was injected with saline. The second experiment included four similar groups, except that the peptides were injected at a dose of 25 μg/kg body weight. The third experiment included five groups, each with eight females. One group was injected with native sbGnRH; two other groups were each injected with an analog of sbGnRH, the [D-Ala^6,Pro^9 -NEt]-sbGnRH and [D-Arg^6,Pro^9 -NEt]-sbGnRH; another group was injected with the analog of the mammalian GnRH, [D-Ala^6,Pro^9 -NEt]-mGnRH; and the last group was injected with saline. All peptides in the third experiment were injected at a dose of 5 μg/kg body weight.
In all experiments, the tested peptides were injected into the dorsal musculature, in a volume of 0.5 ml/kg body weight. Each group of fish was held in a separate 600 liter tank exposed to natural photoperiod conditions and supplied with sea water at 20° C. Fish were bled before the injection of the peptides and at 1.5, 4 and 8 hours post-injection. At each bleeding time, 1 ml of blood was removed from the caudal vessels, using a 1 ml syringe fit with a 21G needle. Prior to injection and bleeding, fish were anesthetized in 0.2 ppt of 2-phenoxy-ethanol. Blood was immediately centrifuged and plasma removed and frozen. Levels of seabream GtH-II in the plasma samples were measured using a homologous and specific radioimmunoassay, as previously described (Zohar et al., 1990, Aquaculture 88:189-204). Blood GtH-II levels in the various groups were statistically compared using ANOVA followed by Duncan new multiple range comparison test.

The mark [1] stands for this setting: 5 μg/kg body weight, 1.5 hours post-injection.
The mark [2] stands for this setting: 5 μg/kg body weight, 4 hours after injection.
The mark [3] stands for this setting: 25 μg/kg body weight, 1.5, 4 and 8 hours post-injection.
[4] abbreviates: native GnRH forms, 5 and 25 μg/kg body weight.
[5] abbreviates: 5 μg/kg dose, 1.5 hr after injection.
[6] abbreviates: 25 μg/kg dose, 1.5 hr after injection.

Entries after “also recorded” stand apart in the source; their conditions may differ. Square brackets hold non-standard residues; d marks the D form. Peptide text beside a SMILES is read from it. pGlu = O=C1CC[C@@H](C(=O)O)N1

Turning to `CC(C)C[C@H](NC(=O)CNC(=O)[C@H](Cc1ccc(O)cc1)NC(=O)[C@H](CO)NC(=O)[C@H](Cc1c[nH]c2ccccc12)NC(=O)[C@H](Cc1c[nH]cn1)NC(=O)[C@@H]1CCC(=O)N1)C(=O)N[C@@H](CO)C(=O)N1CCC[C@H]1C(=O)NCC(N)=O` [sbGnRH, pGlu-His-Trp-Ser-Tyr-Gly-Leu-Ser-Pro-Gly-NH 2], the “stimulation of GtH-II secretion (in words)” value is recorded as “significantly stimulate GtH-II secretion”; the “gonadotropin (GtH-II) secretion of sbGnRH, its analogs and the mGnRH analog compared (in words)” value is listed as “did not induce significant release of GtH-II”. Under setting [1], the “blood GtH-II levels, times higher than in control females” value is “tended to be higher than in the control females”. In addition, the “blood GtH-II levels, times higher than in control females” value under setting [2] was “not different from control levels”. Further, the “GtH-II-releasing potency of the native peptides compared (in words)” value (shortened to “GtH-II-releasing potency … compared (in words)”) under setting [3] is “cGnRH-II>sGnRH>sbGnRH”. Also, the “GtH-II levels, times higher than in saline-injected fish” value (“GtH-II levels … in saline-injected fish” below) (1.5 hr after injection) is on record as 4.4 times. Under setting [4], the “GtH-II-releasing potency … compared (in words)” value is “less active than cGnRH-II and sGnRH”.
Regarding `CCNC(=O)[C@@H]1CCCN1C(=O)[C@H](CO)NC(=O)[C@H](CC(C)C)NC(=O)[C@@H](C)NC(=O)[C@H](Cc1ccc(O)cc1)NC(=O)[C@H](CO)NC(=O)[C@H](Cc1c[nH]c2ccccc12)NC(=O)[C@H](Cc1c[nH]cn1)NC(=O)[C@@H]1CCC(=O)N1` [[D-Ala^6,Pro^9-.NEt]-sbGnRH, [D-Ala^6,Pro^9 -NEt]-sbGnRH] ([pGlu]HWSY[dA]LSP-NHEt), the “gonadotropin (GtH-II) secretion of sbGnRH, its analogs and the mGnRH analog compared (in words)” value is “significantly stronger gonadotropin secretion than did the native sbGnRH; also recorded: equipotent; also recorded: much less potent; also recorded: in the same range as those induced by the native sGnRH and cGnRH-II”. Besides, for the setting “5 μg/kg body weight, 1.5 hr”, the “blood GtH-II levels, times higher than in sbGnRH-injected females” value worked out at 5 times. Moreover, for the setting “5 μg/kg body weight, 8 hr”, the “blood GtH-II levels, times higher than in sbGnRH-injected females” value came to 2.5 times.
Take `CCNC(=O)[C@@H]1CCCN1C(=O)[C@H](CO)NC(=O)[C@H](CC(C)C)NC(=O)[C@@H](CCCNC(=N)N)NC(=O)[C@H](Cc1ccc(O)cc1)NC(=O)[C@H](CO)NC(=O)[C@H](Cc1c[nH]c2ccccc12)NC(=O)[C@H](Cc1c[nH]cn1)NC(=O)[C@@H]1CCC(=O)N1` [[D-Arg^6, Pro^9 -NEt]-sbGnRH] ([pGlu]HWSY[dR]LSP-NHEt): the “blood GtH-II levels, times higher than in sbGnRH-injected females” value is listed as 5 times (5 μg/kg body weight, 1.5 hr) and 2.5 times (5 μg/kg body weight, 8 hr).
Regarding `NC(=O)CNC(=O)[C@@H]1CCCN1C(=O)[C@H](Cc1ccc(O)cc1)NC(=O)[C@H](Cc1c[nH]c2ccccc12)NC(=O)CNC(=O)[C@H](Cc1c[nH]cn1)NC(=O)[C@H](CO)NC(=O)[C@H](Cc1c[nH]c2ccccc12)NC(=O)[C@H](Cc1c[nH]cn1)NC(=O)[C@@H]1CCC(=O)N1` [cGnRH-II, pGlu-His-Trp-Ser -His-Gly-Trp-Tyr-Pro-Gly-NH2, reference compound] ([pGlu]HWSHGWYPG-NH2), the “stimulation of GtH-II secretion (in words)” value is recorded as “significantly stimulate GtH-II secretion”. In addition, the “blood GtH-II levels, times higher than in control females” value under setting [1] amounted to 14.50 times. In addition, under setting [2], the “blood GtH-II levels, times higher than in control females” value is 6.2 times. Besides, the “blood GtH-II levels versus control females” value (5 μg/kg body weight, 8 hours post-injection) is recorded as “higher GtH-II levels”. Under setting [5], the “potency in inducing GtH-II secretion, times more potent than sGnRH” value is given as 1.75 times and the “potency in inducing GtH-II secretion, times more potent than sbGnRH” value stood at 8 times. Moreover, the “GtH-II-releasing potency … compared (in words)” value under setting [3] is on record as “cGnRH-II>sGnRH>sbGnRH; also recorded: induced higher GtH-II secretion than did sGnRH or sbGnRH”. The “GtH-II levels … in saline-injected fish” value (1.5 hr after injection) is on record as 31.0 times. Further, the “GtH-II levels … in saline-injected fish” value (4 hr after injection) came to 10.9 times. Under “8 hr after injection”, the “GtH-II levels … in saline-injected fish” value is listed as 5.5 times. For the same molecule, under setting [6], the “potency in inducing GtH-II secretion, times more potent than sGnRH” value was 2 times and the “potency in inducing GtH-II secretion, times more potent than sbGnRH” value is 7 times. For the same molecule, the “GtH-II-releasing potency … compared (in words)” value under setting [4] was “significantly more potent than the novel sbGnRH”.

The record behind these values is patent US5643877A, “Compounds comprising gonadotropin releasing hormone (GnRH) and methods for controlling reproduction in fish” (University of Maryland Biotechnology Institute, priority 1994, dated 1997).
